Source: ChEMBL document CHEMBL3352227, “Synthesis, antimycobacterial and antibacterial evaluation of l-[(1R, 2S)-2-fluorocyclopropyl]fluoroquinolone derivatives containing an oxime functional moiety” (Eur J Med Chem, 2014)
Converted amounts (≈) assume the structure as drawn.

How the values were obtained:
Format in all cases: functional
[1] = test system: Klebsiella pneumoniae; experiment: Antibacterial activity against extended-spectrum beta-lactamase producin Klebsiella pneumoniae 12-7 after 18 to 24 hrs by standard twofold serial dilution method
[2] = test system: Escherichia coli; experiment: Antibacterial activity against extended-spectrum beta-lactamase producing Escherichia coli 12-15 after 18 to 24 hrs by standard twofold serial dilution method
[3] = test system: Klebsiella pneumoniae; experiment: Antibacterial activity against Klebsiella pneumoniae 12-4 after 18 to 24 hrs by standard twofold serial dilution method
[4] = test system: Streptococcus pneumoniae; experiment: Antibacterial activity against Streptococcus pneumoniae ATCC 49619 after 18 to 24 hrs by standard twofold serial dilution method
[5] = test system: Klebsiella pneumoniae; experiment: Antibacterial activity against Klebsiella pneumoniae 12-2 after 18 to 24 hrs by standard twofold serial dilution method
[6] = test system: Escherichia coli; experiment: Antibacterial activity against extended-spectrum beta-lactamase producing Escherichia coli 12-2 after 18 to 24 hrs by standard twofold serial dilution method
[7] = test system: Klebsiella pneumoniae; experiment: Antibacterial activity against extended-spectrum beta-lactamase producin Klebsiella pneumoniae 12-14 after 18 to 24 hrs by standard twofold serial dilution method
[8] = test system: Staphylococcus aureus; experiment: Antibacterial activity against methicillin-resistant Staphylococcus aureus 12-4 after 18 to 24 hrs by standard twofold serial dilution method
[9] = test system: Staphylococcus aureus; experiment: Antibacterial activity against methicillin-sensitive Staphylococcus aureus 12-5 after 18 to 24 hrs by standard twofold serial dilution method
[10] = test system: Klebsiella pneumoniae; experiment: Antibacterial activity against extended-spectrum beta-lactamase producin Klebsiella pneumoniae 12-4 after 18 to 24 hrs by standard twofold serial dilution method
[11] = test system: Escherichia coli; experiment: Antibacterial activity against extended-spectrum beta-lactamase producing Escherichia coli 12-3 after 18 to 24 hrs by standard twofold serial dilution method
[12] = test system: Staphylococcus epidermidis; experiment: Antibacterial activity against methicillin-sensitive Staphylococcus epidermidis 12-8 after 18 to 24 hrs by standard twofold serial dilution method
[13] = test system: Klebsiella pneumoniae; experiment: Antibacterial activity against extended-spectrum beta-lactamase producin Klebsiella pneumoniae 12-3 after 18 to 24 hrs by standard twofold serial dilution method
[14] = test system: Pseudomonas aeruginosa; experiment: Antibacterial activity against Pseudomonas aeruginosa 12-14 after 18 to 24 hrs by standard twofold serial dilution method
[15] = test system: Escherichia coli; experiment: Antibacterial activity against Escherichia coli ATCC 25922 after 18 to 24 hrs by standard twofold serial dilution method
[16] = test system: Staphylococcus epidermidis; experiment: Antibacterial activity against methicillin-resistant Staphylococcus epidermidis 12-1 after 18 to 24 hrs by standard twofold serial dilution method
[17] = test system: Pseudomonas aeruginosa; experiment: Antibacterial activity against Pseudomonas aeruginosa 12-12 after 18 to 24 hrs by standard twofold serial dilution method
[18] = test system: Staphylococcus epidermidis; experiment: Antibacterial activity against methicillin-sensitive Staphylococcus epidermidis 12-6 after 18 to 24 hrs by standard twofold serial dilution method
[19] = test system: Staphylococcus aureus; experiment: Antibacterial activity against methicillin-sensitive Staphylococcus aureus 12-4 after 18 to 24 hrs by standard twofold serial dilution method
[20] = test system: Staphylococcus epidermidis; experiment: Antibacterial activity against methicillin-resistant Staphylococcus epidermidis 12-6 after 18 to 24 hrs by standard twofold serial dilution method
[21] = test system: Staphylococcus aureus; experiment: Antibacterial activity against methicillin-sensitive Staphylococcus aureus 12-1 after 18 to 24 hrs by standard twofold serial dilution method
[22] = test system: Staphylococcus aureus; experiment: Antibacterial activity against methicillin-sensitive Staphylococcus aureus 12-2 after 18 to 24 hrs by standard twofold serial dilution method
[23] = test system: Streptococcus pneumoniae; experiment: Antibacterial activity against Streptococcus pneumoniae 12-18 after 18 to 24 hrs by standard twofold serial dilution method
[24] = test system: Staphylococcus epidermidis; experiment: Antibacterial activity against methicillin-sensitive Staphylococcus epidermidis 12-3 after 18 to 24 hrs by standard twofold serial dilution method
[25] = test system: Mycobacterium tuberculosis; experiment: Antimycobacterial activity against Mycobacterium tuberculosis H37Rv ATCC 27294 by MABA method
[26] = test system: Staphylococcus aureus; experiment: Antibacterial activity against methicillin-resistant Staphylococcus aureus 12-5 after 18 to 24 hrs by standard twofold serial dilution method
[27] = test system: Staphylococcus aureus; experiment: Antibacterial activity against Staphylococcus aureus ATCC 25923 after 18 to 24 hrs by standard twofold serial dilution method
[28] = test system: Escherichia coli; experiment: Antibacterial activity against extended-spectrum beta-lactamase producing Escherichia coli 12-14 after 18 to 24 hrs by standard twofold serial dilution method
[29] = test system: Klebsiella pneumoniae; experiment: Antibacterial activity against Klebsiella pneumoniae 12-1 after 18 to 24 hrs by standard twofold serial dilution method
[30] = test system: Escherichia coli; experiment: Antibacterial activity against Escherichia coli 12-1 after 18 to 24 hrs by standard twofold serial dilution method
[31] = test system: Staphylococcus aureus; experiment: Antibacterial activity against methicillin-resistant Staphylococcus aureus 12-2 after 18 to 24 hrs by standard twofold serial dilution method
[32] = test system: Staphylococcus epidermidis; experiment: Antibacterial activity against methicillin-sensitive Staphylococcus epidermidis 12-1 after 18 to 24 hrs by standard twofold serial dilution method

SMILES | MIC [1] | MIC [2] | MIC [3] | MIC [4] | MIC [5] | MIC [6] | MIC [7] | MIC [8] | MIC [9] | MIC [10] | MIC [11] | MIC [12] | MIC [13] | MIC [14] | MIC [15] | MIC [16] | MIC [17] | MIC [18] | MIC [19] | MIC [20] | other results
CO/N=C1/CN(c2nc3c(cc2F)c(=O)c(C(=O)O)cn3[C@@H]2C[C@@H]2F)[C@H]1CN | 2 µg/mL (≈ 5.08 µM) | > 128 µg/mL | 0.25 µg/mL (≈ 0.636 µM) | 0.5 µg/mL (≈ 1.27 µM) | 0.25 µg/mL (≈ 0.636 µM) | 128 µg/mL (≈ 325 µM) | 128 µg/mL (≈ 325 µM) | 32 µg/mL (≈ 81.4 µM) | 0.06 µg/mL (≈ 0.153 µM) | 8 µg/mL (≈ 20.3 µM) | 16 µg/mL (≈ 40.7 µM) | 2 µg/mL (≈ 5.08 µM) | 64 µg/mL (≈ 163 µM) | 32 µg/mL (≈ 81.4 µM) | 0.06 µg/mL (≈ 0.153 µM) | 4 µg/mL (≈ 10.2 µM) | 2 µg/mL (≈ 5.08 µM) | 0.06 µg/mL (≈ 0.153 µM) | 0.03 µg/mL (≈ 0.0763 µM) | 4 µg/mL (≈ 10.2 µM) | MIC [21]: 0.06 µg/mL (≈ 0.153 µM); MIC [22]: 0.06 µg/mL (≈ 0.153 µM); MIC [23]: 2 µg/mL (≈ 5.08 µM); MIC [24]: 0.5 µg/mL (≈ 1.27 µM); MIC [25]: 1 µg/mL (≈ 2.54 µM); MIC [26]: 32 µg/mL (≈ 81.4 µM); MIC [27]: 0.125 µg/mL (≈ 0.318 µM); MIC [28]: 128 µg/mL (≈ 325 µM); MIC [29]: 0.25 µg/mL (≈ 0.636 µM); MIC [30]: 1 µg/mL (≈ 2.54 µM); MIC [31]: 32 µg/mL (≈ 81.4 µM); MIC [32]: 0.06 µg/mL (≈ 0.153 µM)
CO/N=C1/CCN(c2cc3c(cc2F)c(=O)c(C(=O)O)cn3[C@@H]2C[C@@H]2F)CC1N (stereo partly specified) | 4 µg/mL (≈ 9.84 µM) | > 128 µg/mL | 1 µg/mL (≈ 2.46 µM) | 1 µg/mL (≈ 2.46 µM) | 1 µg/mL (≈ 2.46 µM) | > 128 µg/mL | > 128 µg/mL | 128 µg/mL (≈ 315 µM) | 0.5 µg/mL (≈ 1.23 µM) | 16 µg/mL (≈ 39.4 µM) | 16 µg/mL (≈ 39.4 µM) | 2 µg/mL (≈ 4.92 µM) | > 128 µg/mL | 32 µg/mL (≈ 78.7 µM) | 0.25 µg/mL (≈ 0.615 µM) | 8 µg/mL (≈ 19.7 µM) | 4 µg/mL (≈ 9.84 µM) | 0.5 µg/mL (≈ 1.23 µM) | 0.5 µg/mL (≈ 1.23 µM) | 2 µg/mL (≈ 4.92 µM) | MIC [21]: 0.5 µg/mL (≈ 1.23 µM); MIC [22]: 0.5 µg/mL (≈ 1.23 µM); MIC [23]: 2 µg/mL (≈ 4.92 µM); MIC [24]: 1 µg/mL (≈ 2.46 µM); MIC [25]: 1 µg/mL (≈ 2.46 µM); MIC [26]: 64 µg/mL (≈ 157 µM); MIC [27]: 0.5 µg/mL (≈ 1.23 µM); MIC [28]: 128 µg/mL (≈ 315 µM); MIC [29]: 2 µg/mL (≈ 4.92 µM); MIC [30]: 2 µg/mL (≈ 4.92 µM); MIC [31]: 64 µg/mL (≈ 157 µM); MIC [32]: 0.5 µg/mL (≈ 1.23 µM)
CCO/N=C1/CN(c2c(F)cc3c(=O)c(C(=O)O)cn([C@@H]4C[C@@H]4F)c3c2Cl)CC1CN (stereo partly specified) | 4 µg/mL (≈ 8.79 µM) | > 128 µg/mL | 1 µg/mL (≈ 2.2 µM) | 1 µg/mL (≈ 2.2 µM) | 1 µg/mL (≈ 2.2 µM) | 128 µg/mL (≈ 281 µM) | 64 µg/mL (≈ 141 µM) | 16 µg/mL (≈ 35.2 µM) | 0.25 µg/mL (≈ 0.55 µM) | 32 µg/mL (≈ 70.4 µM) | 32 µg/mL (≈ 70.4 µM) | 2 µg/mL (≈ 4.4 µM) | 32 µg/mL (≈ 70.4 µM) | 32 µg/mL (≈ 70.4 µM) | 0.5 µg/mL (≈ 1.1 µM) | 4 µg/mL (≈ 8.79 µM) | 4 µg/mL (≈ 8.79 µM) | 0.25 µg/mL (≈ 0.55 µM) | 0.25 µg/mL (≈ 0.55 µM) | 16 µg/mL (≈ 35.2 µM) | MIC [21]: 0.25 µg/mL (≈ 0.55 µM); MIC [22]: 0.125 µg/mL (≈ 0.275 µM); MIC [23]: 4 µg/mL (≈ 8.79 µM); MIC [24]: 1 µg/mL (≈ 2.2 µM); MIC [25]: 4 µg/mL (≈ 8.79 µM); MIC [26]: 16 µg/mL (≈ 35.2 µM); MIC [27]: 0.5 µg/mL (≈ 1.1 µM); MIC [28]: 128 µg/mL (≈ 281 µM); MIC [29]: 0.5 µg/mL (≈ 1.1 µM); MIC [30]: 2 µg/mL (≈ 4.4 µM); MIC [31]: 16 µg/mL (≈ 35.2 µM); MIC [32]: 0.5 µg/mL (≈ 1.1 µM)
